How the values were obtained:
[1] = biological target: RAC-alpha serine/threonine-protein kinase (Homo sapiens) (UniProt P31749); assay: Binding activity for protein kinase B (Akt) PH domain
[2] = biological target: RAC-alpha serine/threonine-protein kinase (Homo sapiens) (UniProt P31749); assay: Inhibition of protein kinase B (Akt) PH domain
[3] = biological target: RAC-alpha serine/threonine-protein kinase (Homo sapiens) (UniProt P31749); assay: Binding affinity for protein kinase B (Akt) PH domain
[4] = biological target: RAC-alpha serine/threonine-protein kinase (Homo sapiens) (UniProt P31749); assay: Inhibition of binding to Protein kinase B (Akt) PH domain; design: scale not given: the % may be the effect or the level left

RAC-alpha serine/threonine-protein kinase (Homo sapiens), sequence (P31749 whole entry, the tested form may be a part): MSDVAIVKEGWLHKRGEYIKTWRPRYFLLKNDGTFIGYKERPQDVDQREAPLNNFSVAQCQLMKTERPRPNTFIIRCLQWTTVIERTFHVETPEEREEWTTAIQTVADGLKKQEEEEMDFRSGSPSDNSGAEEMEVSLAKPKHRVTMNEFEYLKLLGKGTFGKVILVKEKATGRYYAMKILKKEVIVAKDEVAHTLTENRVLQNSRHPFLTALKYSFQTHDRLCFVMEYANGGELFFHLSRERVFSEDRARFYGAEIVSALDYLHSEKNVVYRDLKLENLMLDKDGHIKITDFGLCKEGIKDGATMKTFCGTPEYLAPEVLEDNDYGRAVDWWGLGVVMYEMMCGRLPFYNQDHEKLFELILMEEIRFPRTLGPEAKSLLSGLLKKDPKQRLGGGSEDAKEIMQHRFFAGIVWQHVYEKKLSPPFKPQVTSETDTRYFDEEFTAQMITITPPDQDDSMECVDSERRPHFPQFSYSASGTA

Row | Activity [1] [%] | Ratio [2] | Ratio [3] | Activity [4] [%] | SMILES
1 | 13 |  |  |  | CCCCCCCCCCCCCCCCCCCC(=O)OC(COC(=O)CCCCCCCCCCCCCCCCC)COP(=O)(O)OC1C(O)CCC(OP(=O)(O)O)C1O (configuration not stated)
2 | 100 |  | 0.57 |  | CCCCCCCCCCCCCCCCCCCC(=O)OC(COC(=O)CCCCCCCCCCCCCCCCC)COP(=O)(O)OC1C(O)CC(OP(=O)(O)O)C(OP(=O)(O)O)C1O (configuration not stated)

The remaining lines, values behind:

Row | SMILES | Activity [1] [%] | Ratio [2] | Ratio [3] | Activity [4] [%]
3 | CCCCCCCCCCCCCCCCCCOC[C@H](COC(=O)O[C@@H]1[C@H](O)[C@@H](CO)[C@@H](O)[C@H](O)[C@@H]1O)OC (stereo in doubt; 2) |  | 32 |  | 
4 | CCCCCCCCCCCCCCCCCCCC(=O)OC(COC(=O)CCCCCCCCCCCCCCCCC)COP(=O)(O)OC1C(O)C(OP(=O)(O)O)C(OP(=O)(O)O)C(OP(=O)(O)O)C1O (configuration not stated) |  |  | 0.4 | -35
5 | CCCCCCCCCCCCCCCCCCOC[C@H](COC(=O)O[C@@H]1[C@H](O)[C@@H](CO)[C@@H](O)[C@H](O)[C@@H]1O)OC (stereo in doubt; 1) |  | 5 |  | 
